Measurements reported in US8663914B2, “System and method for controlling bacterial cells with weak electric currents” (Syracuse University, priority 2009, dated 2014).
In brackets after ≈: the same amount, converted by molar mass. Where two headings read alike, the source gives them in different places.

Experiments:
[1] = test system: E. coli HM22 persister cells; test: ROS accumulation (H2DCFDA fluorescence) and CFU count of E. coli HM22 persister cells treated with current and/or H2O2; type: cell-based
Method: Thus, the treatment could render the persister cells more susceptible to external ROS. To test this hypothesis, we treated E. coli HM22 persister cells with 100 μA for 20 min and followed by treatment with and without H2O2 (500 μM) for 1 h. These cells were then split into two parts: one for microscopic analysis and the other for CFU count. For microscopic study, cells were treated with 200 μM dichlorodihydrofluorescein diacetate (H2DCFDA, Sigma-Aldrich, St. Louis, Mo.) for 30 min in dark at room temperature. After incubation, cells were spin down and resuspended in PBS buffer for visualization using a fluorescence microscope (Axio Imager M1, ZEISS, Jena, Germany). The dye H2DCFDA can penetrate bacterial cells and get cleaved by cellular esterase to produce H2DCF. If there is any ROS present, this H2DCF will be converted to DCF and give fluorescence (Invitrogen, USA). […] For the CFU count, cells were plated on LB plates supplemented with DPA and incubated overnight at 37° C.

B. subtilis 168 = conditions: reported in the literature; cited from earlier work
[2] = test system: planktonic B. subtilis BE1500; test: Minimum inhibitory concentration of ampicillin on planktonic cells (OD600, 96-well plate); type: cell-based; conditions: Bacillus subtilis; LB medium, 24 hours, 37° C.
Method: Determination of Minimum Inhibitory Concentration and Minimum Bactericidal Concentrations. To determine the minimum inhibitory concentrations (MICs) of ampicillin on planktonic cells, B. subtilis 168 and B. subtilis BE1500 were cultured in LB medium overnight as described above. The overnight cultures were subcultured by a 1:1000 dilution in LB medium containing various concentrations of ampicillin with seven replicates in a 96-well plate and allowed to grow at 37° C. with shaking at 200 rpm for 24 hours. The OD600 was measured immediately after inoculations and at 24 hours after inoculation with a microplate reader (Model EL808, BioTek Instruments, Winooski, Vt.).

[3] = test system: B. subtilis BE1500 biofilms; test: Treatment of B. subtilis BE1500 biofilms with ampicillin and/or DC (CFU count); type: cell-based
Method: MIC is not a useful measurement of the response of biofilms to antibiotics because antibiotics added in the growth medium before inoculation could kill planktonic cells before they can form a biofilm. Therefore it is important to characterize the minimum bactericidal concentration (MBC) of ampicillin on established biofilms. B. subtilis BE1500 was cultured overnight as described above. Flat stainless steel electrodes were placed in a 100 mm petri dish with 20 mL LB medium, which was inoculated with 20 μL of an overnight culture. Biofilms were allowed to develop for 48 hours at 37° C. without shaking. The electrodes with biofilms were gently washed three times in 0.85% NaCl buffer and immersed in LB medium containing various concentrations of ampicillin for 15 min. Immediately after treatment, the electrodes with biofilms were placed in a 15 mL polystyrene test tube (Fisher Scientific) containing 4 mL 0.85% NaCl buffer and sonicated for 2 min to remove the biofilm cells from the surface. The stainless steel electrode was then removed and the tube was vortexed for 30 s to break up any remaining cell clusters. CFUs were counted after spreading the buffer with cells on LB agar plates and incubated overnight at 37° C.
Treatment of Biofilm Cultures with Ampicillin and DC. B. subtilis BE1500 biofilms were prepared as described for MBC experiments. Prior to treatment, biofilms were gently washed three times with 0.85% NaCl buffer. Each stainless steel coupon with biofilm was placed as the working electrode in the electrochemical cell cuvette shown in FIG. 16. Prior to placing the electrode with biofilm in the cuvette, 3 mL LB medium was added to the cuvette to prevent the biofilm from drying out. Samples were treated for 15 min with 0, 25, 83 and 250 μA/cm^2. Immediately after treatment, the biofilms were placed in a 15 mL polystyrene test tube containing 4 mL 0.85% NaCl buffer and sonicated for 2 min to remove the biofilm from electrode. The stainless steel electrode was then removed and the tube containing the cells and buffer was vortexed for 30 s to break up any remaining cell clusters. Cell densities were determined by plating the cultures on LB/agar plates and counting CFUs. The effect of current-generated ions was tested in the same way except that the cells were incubated in pre-treated LB in the absence of a current.

[4] = test system: E. coli HM22 persister cells; type: cell-based; conditions: 0.85% NaCl buffer
Method: To evaluate the effects of electric currents, the persister cells were first isolated as described previously. Briefly, the exponential culture of HM22 at optical density at 600 nm (OD600) of 0.3 in LB medium was treated with 100 μg/mL ampicillin for 3 h to kill and lyse the normal cells. The persister cells were then collected by centrifugation at 8000 rpm at 4° C. for 10 min and resuspended in 0.85% NaCl buffer. Electrodes with a dimension of 1 cm×5.6 cm were cut from a flat 304L stainless steel sheet (MSC; Melville, N.Y.) or graphite sheet (McMaster-CARR, Santa Fe Springs, Calif.). The same material was used for both the counter electrode and working electrode, which were placed into a 4.5 mL standard-style polystyrene cuvette (Fisher Scientific; Hampton, N.H.). A 0.48 mm diameter silver wire (A-M Systems; Sequim, Wash.) was placed in bleach for 30 min to produce an Ag/AgCl reference electrode. The bottom 1″ of a borosilicate glass Pasteur pipette (Fisher) was cut and the reference wire was placed inside to prevent contact with the working or counter electrode. An AFCBP1 potentiostat/galvanostat (Pine Instrument Company, Grove City, Pa.) was connected via alligator clamps to the electrodes and used to control the current. The volume of medium in the fully-constructed electrochemical cell was 3 mL (see FIG. 2).

P. aeruginosa PAO1 = conditions: ciprofloxacin up to 200 μg/mL, 3.5 h, overnight culture
P. aeruginosa PAO1 cells = test: Killing of P. aeruginosa PAO1 cells at exponential phase by tobramycin and/or electric current (CFU count); type: cell-based
Method: Continued experiments, for example, have already shown that the effects of electric current and synergy with antibiotics is not species specific, as similar results were shown using P. aeruginosa. The experiments were conducted in the same way as described for E. coli HM22. Briefly, an overnight culture of P. aeruginosa PAO1 was used to inoculate LB medium to an OD600 of ˜0.005 (1:1000 dilution of an overnight culture with LB) and incubated till OD600 reached ˜0.7. Then the cells were washed twice with 0.85% NaCl buffer and treated in the same way as described for planktonic E. coli cells. […] Treatment with 75 μA/cm^2 for 60 min reduced the number of viable P. aeruginosa PAO1 cells by 3 logs.

E. coli HM22 biofilms = test: Killing of E. coli HM22 biofilm cells on 304L stainless steel coupons by tobramycin and/or direct current (CFU count); type: cell-based
Method: To determine if electric currents are also effective in killing persister cells in biofilms, E. coli HM22 biofilms were cultured on 304L stainless steel coupons. The biofilm-coated coupons were then used as anodic or cathodic electrode, and treated with direct current alone or with tobramycin together. Immediately after treatment, the cells were removed from the biofilm-coated coupons by sonication and vertexing. A portion of the cells was directly plated on LB+DPA plates to quantify the total number of viable cells by counting CFU, the other part of the sample was treated with 100 μg/mL ampicillin for another 3 h and plated on LB+DPA plates to quantify the number of the viable persister cells. This approach allowed us to study the killing effects on normal and persister cells separately.
However, treatments with 75 μA/cm^2 alone for 60 min reduced the number of viable persister cells by 3.5 logs. After treating biofilms with currents and tobramycin together for 60 min, the number of viable persister cells was reduced by 5.4 log (nearly complete killing, FIG. 4). Thus, synergy between electric currents and antibiotics also exist for killing persister cells in biofilms.

[5] = test system: P. aeruginosa PAO1 persister cells; test: Killing of P. aeruginosa PAO1 persister cells by tobramycin with electric current or pretreated buffer (CFU count); type: cell-based
Method: Thus, the 1% cells that survived the treatment were persister cells and treatment with 200 μg/mL Cip was used in the following experiments to harvest persister cells and ensure the complete killing of normal cells.
However, treatment with 75 μA/cm^2 (500 μA total) current reduced the number of viable persisters by ˜2.5 logs and another 2 logs of killing was obtained when treating with Tob together, as shown in FIG. 12. […] This is a significant advantage compared to traditional antibiotics, which commonly fail to kill bacterial cells that are in stationary phase or are persisters.
To understand if the killing by electric currents was due to the ions generated by electrochemical reactions, P. aeruginosa PAO1 persister cells were also treated with pretreated buffer, which was prepared by treating 0.85% NaCl buffer with SS304 stainless steel electrodes for the same current level and duration as used for the above experiments. The pretreated buffers were collected after 20, 40 or 60 min of treatment. P. aeruginosa PAO1 persister cells were collected as described above and resuspended in the pretreated buffers in the presence and absence of Tob. The cells were then incubated at room temperature without shaking for up to 1 h and samples were collected every 20 min to count CFU. […] The generation of ROS as described in E. coli HM22 data could be partially responsible for the killing. In addition, no synergy was observed between pretreated buffer and 1.5 μg/mL Tob.

[6] = tobramycin alone, 20 μg/mL or 150 μg/mL, compared to untreated control

OO [H2O2]
accumulation of ROS in persister cells ([1]; H2O2 500 μM, 1 h, H2DCFDA fluorescence): caused accumulation of ROS | killing of persister cells (CFU) ([1]; electric current (100 μA, 20 min) followed by H2O2 500 μM for 1 h, versus either alone): killed more persister cells than either the EC or H2O2 alone

CC1(C)S[C@@H]2[C@H](NC(=O)[C@H](N)c3ccccc3)C(=O)N2[C@H]1C(=O)O [ampicillin]
MIC (B. subtilis 168): 0.2 µg/mL (≈ 0.572 µM) | MIC [2]: ≤ 2 µg/mL | change in killing on adding ampicillin to current ([3]; 50 μg/mL ampicillin and 500 μA current, graphite electrodes, chlorine-free M56 buffer, versus current alone): slight decrease in killing | biofilm cells killed ([3]; 1000 μg/mL ampicillin alone for 15 min): 59% | synergy of DC and ampicillin on biofilms ([3]; 83 μA/cm^2 DC and ampicillin together, stainless steel electrodes): no apparent synergy | inhibition at 50 µg/mL ([3]; Bacillus subtilis, BE1500BIOFILMS, 0.25 h, 50 μg/mL ampicillin with 500 μA DC current, 15 min, graphite electrodes, read-out: decrease in cell viability): 44% | inhibition at 100 µg/mL ([3]; Bacillus subtilis, BE1500BIOFILMS, 0.25 h, 100 μg/mL ampicillin with 83 μA/cm^2 DC, 15 min, 37° C., stainless steel electrodes, versus antibiotic alone, read-out: decrease in cell viability): 79% | inhibition at 1000 µg/mL ([3]; Bacillus subtilis, BE1500BIOFILMS, 0.25 h, 1000 μg/mL ampicillin with 83 μA/cm^2 DC, 15 min, 37° C., stainless steel electrodes, versus antibiotic alone, read-out: decrease in cell viability): 86% | inhibition at 50 µg/mL ([3]; Bacillus subtilis, BE1500BIOFILMS, 0.25 h, read-out: decrease in cell viability, 50 μg/mL ampicillin with 83 μA/cm^2 (500 μA) DC, 15 min, 37° C., stainless steel electrodes, LB, versus antibiotic alone): 93% | viability at 50 µg/mL ([3]; Bacillus subtilis, BE1500BIOFILMS, 50 μg/mL ampicillin with 500 μA DC current, graphite electrodes, chlorine-free M56 buffer, read-out: viability of biofilm cells (untreated control normalized as 100%)): 74%

CCn1nc(C(=O)O)c(=O)c2cc3c(cc21)OCO3 [cinoxacin]
reduction in the number of viable persister cells ([4]; 20 μg/mL cinoxacin alone, graphite electrodes cell, 60 min): no apparent reduction | reduction in the number of viable persister cells ([4]; 20 μg/mL cinoxacin together with 75 μA/cm^2 current, graphite electrodes): more than 5 log

O=C(O)c1cn(C2CC2)c2cc(N3CCNCC3)c(F)cc2c1=O [ciprofloxacin]
cells that survived the treatment (P. aeruginosa PAO1): 1%

NC[C@H]1O[C@H](O[C@H]2[C@H](O)[C@@H](O[C@H]3O[C@H](CO)[C@@H](O)[C@H](N)[C@H]3O)[C@H](N)C[C@@H]2N)[C@H](N)C[C@@H]1O [tobramycin]
killing of viable cells (P. aeruginosa PAO1 cells; 1.5 μg/mL Tob alone, 0.85% NaCl buffer): did not cause any significant killing | killing of viable cells (P. aeruginosa PAO1 cells; 1.5 μg/mL Tob combined with 75 μA/cm^2 for 60 min): up to 5 logs | reduction of number of viable persister cells in biofilm (E. coli HM22 biofilms; currents (75 μA/cm^2 DC) and tobramycin (20 μg/mL) together for 60 min): 5.4 log | reduction in number of viable persister cells in biofilm (E. coli HM22 biofilms; [6]): no significant reduction | reduction in total number of viable cells in biofilm (E. coli HM22 biofilms; [6]): no significant reduction | killing of persister cells ([5]; 1.5 μg/mL Tob alone): not able to kill | synergy between pretreated buffer and Tob ([5]; 1.5 μg/mL Tob in 0.85% NaCl buffer pretreated with SS304 electrodes, no current, up to 1 h): no synergy | additional killing of persister cells beyond current alone ([5]; 1.5 μg/mL Tob together with 75 μA/cm^2 (500 μA total) current): 2 logs | synergy with electric current in killing persister cells ([4]; tobramycin with 75 μA/cm^2 DC, graphite electrodes): synergistic effect
